# Laboratory results published in patent US20150202172A1, “NOVEL METHOD OF USE” (Glaxo Group Limited, priority 2014, published 2015).
# What was measured:
# [1] = system: patients with Severe Refractory Chronic Hand Eczema (CHE); assay: Clinical trial simulation (longitudinal dose response model): PGA score at end of treatment; type: in vivo, human; conditions: 30 mg
# Protocol: (§1) In clinical studies, efficacy was measured using PGA score and modified total lesion signs and symptoms (mTLSS) at various times during and post treatment. PGA scores over time were chosen for this analysis because PGA scores were the primary endpoint in the Phase III studies and were collected at more time points than the mTLSS. The PGA was graded according to 5 point scale (clear, almost clear, mild disease, moderate disease, severe disease). The mTLSS severity score was graded 0 to 3 for 7 parameters.
# For the Physician Global Assessment (PGA), a general description of CHE severity, which is a well recognized scale is shown below in Table 7 for clarification purposes.
# [2] = system: patients with Severe Refractory Chronic Hand Eczema (CHE); assay: Clinical trial simulation (longitudinal dose response model): time from initial dose to onset of effect; type: in vivo, human; conditions: for Time to Onset of Effect (a Drop of 2 or More Points in PGA in 30% of Subjects): 30 mg
# Protocol: In reviewing the data to make these determinations, all available PGA scores observed (not including scores derived from missing data such as last observation carried forward (LOCF) including those at baseline, every 4 weeks during treatment, and every 4 to 8 weeks after cessation of treatment for up to 72 weeks post treatment from the various clinical trials were used to develop a longitudinal dose response model.
# as §1
# A >2 weeks time to onset is considered clinically relevant.
structure (smiles),measurement,setting,value
"CC1=C(/C=C/C(C)=C\C=C\C(C)=C\C(=O)O)C(C)(C)CCC1 [Alitretinoin, 9-cis isomer of retinoic acid (RA)]",Proportion of Responders (PGA = 1 or 2) at End of Treatment,[1]; age 30 yr,"33.9 (26, 42) %"
same,Proportion of Subjects (PGA = 2) at End of Treatment,[1]; age 30 yr,"22.9 (16, 30) %"
same,Proportion of Subjects (PGA = 3) at End of Treatment,[1]; age 30 yr,"28.4 (21, 36) %"
same,Proportion of Responders (PGA = 1 or 2) at End of Treatment,[1]; age 50 yr,"41.1 (33, 49) %"
same,Proportion of Subjects (PGA = 1) at End of Treatment,[1]; age 50 yr,"14.9 (9, 21) %"
same,Proportion of Subjects (PGA = 2) at End of Treatment,[1]; age 50 yr,"26.3 (20, 34) %"
same,Proportion of Subjects (PGA = 3) at End of Treatment,[1]; age 50 yr,"28.3 (20, 35) %"
same,Proportion of Responders (PGA = 1 or 2) at End of Treatment,[1]; age 65 yr,"48.0 (40, 56) %"
same,Proportion of Subjects (PGA = 1) at End of Treatment,[1]; age 65 yr,"19.3 (13, 26) %"
same,Proportion of Subjects (PGA = 2) at End of Treatment,[1]; age 65 yr,"28.7 (22, 36) %"
same,Proportion of Subjects (PGA = 3) at End of Treatment,[1]; age 65 yr,"27.1 (19, 35) %"
same,Proportion of Responders (PGA = 1 or 2) at End of Treatment,[1]; age 75 yr,"53.0 (45, 62) %"
same,Proportion of Subjects (PGA = 1) at End of Treatment,[1]; age 75 yr,"22.8 (16, 30) %"
same,Proportion of Subjects (PGA = 2) at End of Treatment,[1]; age 75 yr,"30.2 (23, 37) %"
same,Proportion of Subjects (PGA = 3) at End of Treatment,[1]; age 75 yr,"25.8 (18, 33) %"
same,Proportion of Responders (PGA = 1 or 2) at End of Treatment,[1]; duration of treatment 4 weeks,"4.3 (1, 8) %"
same,Proportion of Subjects (PGA = 1) at End of Treatment,[1]; duration of treatment 4 weeks,"1.3 (1, 2) %"
same,Proportion of Subjects (PGA = 2) at End of Treatment,[1]; duration of treatment 4 weeks,"3.7 (1, 7) %"
same,Proportion of Subjects (PGA = 3) at End of Treatment,[1]; duration of treatment 4 weeks,"10.5 (5, 16) %"
same,Proportion of Responders (PGA = 1 or 2) at End of Treatment,[1]; duration of treatment 8 weeks,"15.2 (10, 21) %"
same,Proportion of Subjects (PGA = 1) at End of Treatment,[1]; duration of treatment 8 weeks,"3.6 (1, 7) %"
same,Proportion of Subjects (PGA = 2) at End of Treatment,[1]; duration of treatment 8 weeks,"11.7 (7, 17) %"
same,Proportion of Subjects (PGA = 3) at End of Treatment,[1]; duration of treatment 8 weeks,"22.5 (16, 29) %"
same,Proportion of Responders (PGA = 1 or 2) at End of Treatment,[1]; duration of treatment 12 weeks,"23.7 (16, 31) %"
same,Proportion of Subjects (PGA = 1) at End of Treatment,[1]; duration of treatment 12 weeks,"6.6 (3, 11) %"
same,Proportion of Subjects (PGA = 2) at End of Treatment,[1]; duration of treatment 12 weeks,"17.1 (11, 24) %"
same,Proportion of Subjects (PGA = 3) at End of Treatment,[1]; duration of treatment 12 weeks,"26.4 (19, 34) %"
same,Proportion of Responders (PGA = 1 or 2) at End of Treatment,[1]; duration of treatment 16 weeks,"30.2 (23, 38) %"
same,Proportion of Subjects (PGA = 1) at End of Treatment,[1]; duration of treatment 16 weeks,"9.2 (5, 14) %"
same,Proportion of Subjects (PGA = 2) at End of Treatment,[1]; duration of treatment 16 weeks,"21.0 (14, 28) %"
same,Proportion of Subjects (PGA = 3) at End of Treatment,[1]; duration of treatment 16 weeks,"27.7 (21, 35) %"
same,Proportion of Responders (PGA = 1 or 2) at End of Treatment,[1]; duration of treatment 20 weeks,"35.4 (28, 43) %"
same,Proportion of Subjects (PGA = 1) at End of Treatment,[1]; duration of treatment 20 weeks,"11.9 (7, 17) %"
same,Proportion of Subjects (PGA = 2) at End of Treatment,[1]; duration of treatment 20 weeks,"23.6 (17, 31) %"
same,Proportion of Subjects (PGA = 3) at End of Treatment,[1]; duration of treatment 20 weeks,"28.0 (21, 35) %"
same,Proportion of Responders (PGA = 1 or 2) at End of Treatment,[1]; duration of treatment 24 weeks,"40.4 (33, 48) %"
same,Proportion of Subjects (PGA = 1) at End of Treatment,[1]; duration of treatment 24 weeks,"14.7 (9, 21) %"
same,Proportion of Subjects (PGA = 2) at End of Treatment,[1]; duration of treatment 24 weeks,"25.7 (19, 33) %"
same,Proportion of Subjects (PGA = 3) at End of Treatment,[1]; duration of treatment 24 weeks,"28.2 (21, 35) %"
same,faster time to onset of effect,[2]; 65 or 75 year old compared with a 30 year old,> 2 weeks
same,Time to Onset of Effect (a Drop of 2 or More Points in PGA in 30% of Subjects),[2]; age 30 yr,"58 (49, 70) Days"
same,Time to Onset of Effect (a Drop of 2 or More Points in PGA in 30% of Subjects),[2]; age 50 yr,"49 (42, 56) Days"
same,Time to Onset of Effect (a Drop of 2 or More Points in PGA in 30% of Subjects),[2]; age 65 yr,"43 (35, 49) Days"
